We go through 30 molecules from patent US20230382925A1, “MODULATORS OF CYSTIC FIBROSIS TRANSMEMBRANE CONDUCTANCE REGULATOR” (VERTEX PHARMACEUTICALS INCORPORATED, priority 2020, published 2023).

For orientation: EC50 means the midpoint of the concentration-response curve.

This test has as its target CFTR (Homo sapiens, UniProt P13569). As to the kind of experiment: Membrane Potential Dye, Enteroid Assay B. It counts as cell-based. In a few lines: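 Activity given as % of a triple-combination reference (1 μM and 3 μM correctors, 300 nM acute potentiator). Enteroids were preincubated 18-24 h with compound; chloride efflux then measured 15 min by methyl oxonol fluorescence after forskolin/IBMX/Compound III stimulation in chloride-free buffer containing CaCCinh-A01 and Chicago Sky Blue.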

Setting [1] is: Table 10, read-out: Ent. B EC50.

Where two headings read alike, the source gives them in different places.

Sequence of CFTR (P13569 with tags, fused parts or gaps DEL508-508): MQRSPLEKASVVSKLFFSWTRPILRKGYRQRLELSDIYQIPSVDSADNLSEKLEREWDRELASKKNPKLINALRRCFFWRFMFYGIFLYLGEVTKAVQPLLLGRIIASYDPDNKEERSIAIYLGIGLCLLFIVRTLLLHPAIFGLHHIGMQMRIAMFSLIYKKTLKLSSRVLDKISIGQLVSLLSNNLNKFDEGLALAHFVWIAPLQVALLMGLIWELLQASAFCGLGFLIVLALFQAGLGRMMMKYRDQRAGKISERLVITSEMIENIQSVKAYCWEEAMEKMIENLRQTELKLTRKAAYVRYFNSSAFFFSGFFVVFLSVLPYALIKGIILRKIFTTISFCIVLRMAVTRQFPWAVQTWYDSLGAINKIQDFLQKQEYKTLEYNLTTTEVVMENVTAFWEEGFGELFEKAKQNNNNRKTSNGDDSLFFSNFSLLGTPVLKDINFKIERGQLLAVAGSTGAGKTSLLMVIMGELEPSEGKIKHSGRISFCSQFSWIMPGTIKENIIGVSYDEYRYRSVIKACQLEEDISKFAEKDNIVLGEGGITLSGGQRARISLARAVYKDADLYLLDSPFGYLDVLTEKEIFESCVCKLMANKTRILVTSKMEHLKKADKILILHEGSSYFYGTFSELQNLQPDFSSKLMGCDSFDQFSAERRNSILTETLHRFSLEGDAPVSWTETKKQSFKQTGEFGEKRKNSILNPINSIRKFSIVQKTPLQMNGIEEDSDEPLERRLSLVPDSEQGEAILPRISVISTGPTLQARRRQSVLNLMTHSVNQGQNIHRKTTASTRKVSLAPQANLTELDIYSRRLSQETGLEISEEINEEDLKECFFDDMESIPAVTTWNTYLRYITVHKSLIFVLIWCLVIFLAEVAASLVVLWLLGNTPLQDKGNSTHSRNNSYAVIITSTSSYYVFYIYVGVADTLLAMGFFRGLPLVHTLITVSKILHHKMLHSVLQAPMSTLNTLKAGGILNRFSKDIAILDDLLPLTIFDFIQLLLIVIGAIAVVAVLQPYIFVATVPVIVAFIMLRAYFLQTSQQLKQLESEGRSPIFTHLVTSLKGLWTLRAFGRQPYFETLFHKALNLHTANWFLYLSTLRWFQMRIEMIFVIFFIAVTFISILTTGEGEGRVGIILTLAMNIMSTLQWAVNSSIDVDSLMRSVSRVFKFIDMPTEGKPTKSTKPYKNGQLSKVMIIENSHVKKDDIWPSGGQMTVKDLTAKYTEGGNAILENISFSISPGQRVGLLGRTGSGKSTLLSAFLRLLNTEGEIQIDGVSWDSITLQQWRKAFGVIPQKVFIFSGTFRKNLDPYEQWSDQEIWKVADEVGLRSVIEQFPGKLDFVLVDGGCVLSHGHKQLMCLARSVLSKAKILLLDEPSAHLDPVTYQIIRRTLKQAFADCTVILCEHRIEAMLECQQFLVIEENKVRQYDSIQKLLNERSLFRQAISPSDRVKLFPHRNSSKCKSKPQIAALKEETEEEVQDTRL

For the molecule `Cc1cccc(C)c1-c1cc2nc(n1)NS(=O)(=O)c1cccc(c1)C(=O)N([C@H]1C[C@](C)(NC(=O)OC(C)C)C1)[C@H](CC(C)(C)C)CO2` (stereo in doubt) [Compound 245], the “Ent. B Max Activity (%)” value (Table 10) was “+++ (+++ is >60%)”. The EC50 under setting [1] was under 1 µM.
In the case of `COC(=O)N1CCC2(CC1)CC(N1C(=O)c3cccc(c3)S(=O)(=O)Nc3nc(cc(-c4c(C)cccc4C)n3)OC[C@H]1CC(C)(C)C)C2` [Compound 262], the “Ent. B Max Activity (%)” value (Table 9) was “+++ (+++ is >60%)”. Further, the EC50 (Table 9, read-out: Ent. B EC50) was under 1 µM.
Take `Cc1cccc(C)c1-c1cc2nc(n1)NS(=O)(=O)c1cccc(c1)C(=O)N([C@H]1C[C@@H](NC(=O)OC(C)(C)C)C1)[C@H](CC1(C(F)(F)F)CC1)CO2` (single isomer, unassigned) [Compound 55]: the “Ent. B Max Activity (%)” value (Table 9) is given as “+++ (+++ is >60%)”. For the same molecule, the concentration giving a half-maximal response (EC50) (Table 9, read-out: Ent. B EC50) was under 1 µM.
With `Cc1cccc(C)c1-c1cc2nc(n1)NS(=O)(=O)c1cccc(c1)C(=O)N([C@H]1CC3(C[C@H](N(C)C(=O)OC(C)C)C3)C1)[C@H](CC(C)C)CO2` (stereo partly drawn) [Compound 283], under “Table 9”, the “Ent. B Max Activity (%)” value is reported as “++ (++ is 30-60%)”. Moreover, the EC50 (Table 9, read-out: Ent. B EC50) is under 1 µM.
As for `Cc1cccc(C)c1-c1cc2nc(n1)NS(=O)(=O)c1cccc(c1)C(=O)N(C1CC3(CCN3C(=O)CO)C1)[C@H](CC(C)(C)C)CO2` (stereo partly drawn) [Compound 146, (11R)-6-(2,6-Dimethylphenyl)-11-(2,2-dimethylpropyl)-12-[1-(2-hydroxyacetyl)-1-azaspiro[3.3]heptan-6-yl]-2,2-dioxo-9-oxa-2λ^6-thia-3,5,12,19-tetrazatricyclo[12.3.1.14,8]nonadeca-1(18),4(19),5,7,14,16-hexaen-13-one], for the setting “Table 10”, the “Ent. B Max Activity (%)” value is reported as “+++ (+++ is >60%)”. Moreover, under setting [1], the EC50 was under 1 µM.
As for `[H][C@]1(N2C(=O)c3cccc(c3)S(=O)(=O)Nc3nc(cc(-c4c(C)cccc4C)n3)OC[C@H]2CC(C)C)C[C@@]2(C[C@H](C(C)(C)O)C2)C1` (stereo in doubt) [Compound 412], the “Ent. B Max Activity (%)” value (Table 10) is “+++ (+++ is >60%)”. Moreover, the EC50 under setting [1] is under 1 µM.
Turning to `COC(=O)NC1CC2(C1)CC(N1C(=O)c3cccc(c3)S(=O)(=O)Nc3nc(cc(-c4c(C)cccc4C)n3)OC[C@H]1CC(C)(C)C)C2` (stereo partly drawn) [Compound 88, Methyl ((2S,4s,6S)-6-((R)-1^6-(2,6-dimethylphenyl)-7-neopentyl-3,3-dioxido-5-oxo-9-oxa-3-thia-2,6-diaza-1(2,4)-pyrimidina-4(1,3)-benzenacyclononaphane-6-yl)spiro[3.3]heptan-2-yl)carbamate], the “Ent. B Max Activity (%)” value (Table 9) is recorded as “+++ (+++ is >60%)”. Besides, the 50% effective concentration (EC50) (Table 9, read-out: Ent. B EC50) is under 1 µM.
The like results for `CN[C@H]1C[C@]2(C1)C[C@H](N1C(=O)c3cccc(c3)S(=O)(=O)Nc3nc(cc(-c4c(C)cccc4C)n3)OC[C@H]1CC1(C(F)(F)F)CC1)C2` (stereo partly drawn) [Compound 268] were, in that order, “+++ (+++ is >60%)” and under 1 µM.
As for `Cc1cccc(C)c1-c1cc2nc(n1)NS(=O)(=O)c1cccc(c1)C(=O)N(c1cnn(CC(C)C)c1)[C@H](CC(C)(C)C)CO2` [Compound 229], the “Ent. B Max Activity (%)” value (Table 10) is given as “+++ (+++ is >60%)”. The 50% effective concentration (EC50) under setting [1] was under 1 µM.
Consider `Cc1cccc(C)c1-c1cc2nc(n1)NS(=O)(=O)c1cccc(c1)C(=O)N([C@H]1C[C@@H](CN(C)C)C1)[C@H](CC(C)C)CO2` (single isomer, unassigned) [Compound 106], for which the “Ent. B Max Activity (%)” value (Table 9) is reported as “+++ (+++ is >60%)”. Further, under “Table 9, read-out: Ent. B EC50”, the EC50 is under 1 µM.
The like results for `Cc1cccc(C)c1-c1cc2nc(n1)NS(=O)(=O)c1cccc(c1)C(=O)N(C1CC(NC34CC(C3)C4)C1)[C@H](CC(C)C)CO2` (stereo partly drawn) [Compound 73, (11R)-12-[3-(1-Bicyclo[1.1.1]pentanylamino)cyclobutyl]-6-(2,6-dimethylphenyl)-11-isobutyl-2,2-dioxo-9-oxa-2λ^6-thia-3,5,12,19-tetrazatricyclo[12.3.1.14,8]nonadeca-1(18),4(19),5,7,14,16-hexaen-13-one] were, in that order, “+++ (+++ is >60%)” and under 1 µM.
Regarding `Cc1cccc(C)c1-c1cc2nc(n1)NS(=O)(=O)c1cccc(c1)C(=O)N(c1cnn(C3CCN(Cc4ccccc4)CC3)c1)[C@H](CC(C)(C)C)CO2` [Compound 226], the “Ent. B Max Activity (%)” value (Table 10) is “+ (+ is <300%)”. Moreover, the EC50 under setting [1] is under 1 µM.
As to `Cc1cccc(C)c1-c1cc2nc(n1)NS(=O)(=O)c1cccc(c1)C(=O)N(C1CC3(CCN(C4CCOCC4)CC3)C1)[C@H](CC(C)C)CO2` [Compound 275], the “Ent. B Max Activity (%)” value (Table 9) is “+++ (+++ is >60%)”. In addition, for the setting “Table 9, read-out: Ent. B EC50”, the EC50 was under 1 µM.
For `Cc1cccc(C)c1-c1cc2nc(n1)NS(=O)(=O)c1cccc(c1)C(=O)N(C1CC(NC3CCC3)C1)[C@H](CC(C)C)CO2` (stereo partly drawn) [Compound 375] the same measures were “+++ (+++ is >60%)” and under 1 µM.
Turning to `Cc1cccc(C)c1-c1cc2nc(n1)NS(=O)(=O)c1cccc(c1)C(=O)N(C1CC3(CCN(CC(C)(C)C)CC3)C1)[C@H](CC(C)C)CO2` [Compound 279], the “Ent. B Max Activity (%)” value (Table 9) is on record as “+++ (+++ is >60%)”. Moreover, for the setting “Table 9, read-out: Ent. B EC50”, the EC50 was under 1 µM.
On to `Cc1cccc(C)c1-c1cc2nc(n1)NS(=O)(=O)c1cccc(c1)C(=O)N(C1CC(N(C)C3CCC3)C1)[C@H](CC(C)C)CO2` (stereo partly drawn) [Compound 376], for which, for the setting “Table 9”, the “Ent. B Max Activity (%)” value is recorded as “+++ (+++ is >60%)”. Besides, the EC50 (Table 9, read-out: Ent. B EC50) was under 1 µM.
Regarding `Cc1cccc(C)c1-c1cc2nc(n1)NS(=O)(=O)c1cccc(c1)C(=O)N(C1CC(N3CCCC3=O)C1)[C@H](CC(C)C)CO2` (stereo partly drawn) [Compound 369], the “Ent. B Max Activity (%)” value (Table 10) is given as “++ (++ is 30-60%)”. For the same molecule, under setting [1], the EC50 was under 1 µM.
The like results for `CC(=O)NCC[C@H]1C[C@@H](N2C(=O)c3cccc(c3)S(=O)(=O)Nc3nc(cc(-c4c(C)cccc4C)n3)OC[C@H]2CC(C)(C)C)C1` (single isomer, unassigned) [Compound 155] were, in that order, “+++ (+++ is >60%)” and under 1 µM.
As for `Cc1cccc(C)c1-c1cc2nc(n1)NS(=O)(=O)c1cccc(c1)C(=O)N(C1CC3(COC(=O)N3)C1)[C@H](CC(C)(C)C)CO2` (single isomer, unassigned) [Compound 175], under “Table 10”, the “Ent. B Max Activity (%)” value was “++ (++ is 30-60%)”. In addition, under setting [1], the EC50 was under 1 µM.
As for `[H][C@]1(N2C(=O)c3cccc(c3)S(=O)(=O)Nc3nc(cc(-c4c(C)cccc4C)n3)OC[C@H]2CC2(C(F)(F)F)CC2)C[C@@]2(C[C@H](NC(=O)OC(C)C)C2)C1` (stereo partly drawn) [Compound 78, Isopropyl ((2S,4s,6S)-6-((R)-1^6-(2,6-dimethylphenyl)-3,3-dioxido-5-oxo-7-((1-(trifluoromethyl)cyclopropyl)methyl)-9-oxa-3-thia-2,6-diaza-1(2,4)-pyrimidina-4(1,3)-benzenacyclononaphane-6-yl)spiro[3.3]heptan-2-yl)carbamate], the “Ent. B Max Activity (%)” value was “+++ (+++ is >60%)”. Also, the EC50 (read-out: Ent. B EC50) is under 1 µM.
`CN[C@H]1CC2(C1)C[C@H](N1C(=O)c3cccc(c3)S(=O)(=O)Nc3nc(cc(-c4c(C)cccc4C)n3)OC[C@H]1CC(C)C)C2` (stereo partly drawn) [Compound 281]: for the setting “Table 9”, the “Ent. B Max Activity (%)” value is recorded as “+++ (+++ is >60%)”. Moreover, under “Table 9, read-out: Ent. B EC50”, the EC50 is under 1 µM.
On to `Cc1cccc(C)c1-c1cc2nc(n1)NS(=O)(=O)c1cccc(c1)C(=O)N([C@H]1C[C@H](N)C1)[C@H](CC1(C(F)(F)F)CC1)CO2` (single isomer, unassigned) [Compound 57], for which, where the note is “Table 9”, the “Ent. B Max Activity (%)” value was “+++ (+++ is >60%)”. Further, for the setting “Table 9, read-out: Ent. B EC50”, the EC50 is under 1 µM.
Turning to `COC(=O)NC1(C)CC(N2C(=O)c3cccc(c3)S(=O)(=O)Nc3nc(cc(-c4c(C)cccc4C)n3)OC[C@H]2CC(C)(C)C)C1` (single isomer, unassigned) [Compound 172], the “Ent. B Max Activity (%)” value (Table 10) was “+++ (+++ is >60%)”. Further, under setting [1], the EC50 is under 1 µM.
Consider `COCCN[C@H]1C[C@]2(C1)C[C@H](N1C(=O)c3cccc(c3)S(=O)(=O)Nc3nc(cc(-c4c(C)cccc4C)n3)OC[C@H]1CC1(C(F)(F)F)CC1)C2` (stereo partly drawn) [Compound 270], for which the “Ent. B Max Activity (%)” value (Table 9) is given as “+++ (+++ is >60%)”. Further, for the setting “Table 9, read-out: Ent. B EC50”, the EC50 was under 1 µM.
With `CNC(=O)O[C@H]1C[C@@H](N2C(=O)c3cccc(c3)S(=O)(=O)Nc3nc(cc(-c4c(C)cccc4C)n3)OC[C@H]2CC(C)C)C1` (stereo in doubt) [Compound 361], the “Ent. B Max Activity (%)” value (Table 10) is recorded as “++ (++ is 30-60%)”. Moreover, under setting [1], the EC50 was under 1 µM.
For `CCC(=O)N1CCC2(CC1)CC(N1C(=O)c3cccc(c3)S(=O)(=O)Nc3nc(cc(-c4c(C)cccc4C)n3)OC[C@H]1CC(C)(C)C(F)(F)F)C2` [Compound 417] the same measures were “+++ (+++ is >60%)” and under 1 µM.
The like results for `COC(=O)N(C)C1CC(N2C(=O)c3cccc(c3)S(=O)(=O)Nc3nc(cc(-c4c(C)cccc4C)n3)OC[C@H]2CC(C)(C)C)C1` (single isomer, unassigned) [Compound 169] were, in that order, “+++ (+++ is >60%)” and under 1 µM.
Regarding `COC(=O)NC1CC(N2C(=O)c3cccc(c3)S(=O)(=O)Nc3nc(cc(-c4c(C)cccc4C)n3)OC[C@H]2CC(C)(C)C(F)(F)F)C1` (stereo partly drawn) [Compound 419], the “Ent. B Max Activity (%)” value (Table 10) is “+++ (+++ is >60%)”. Besides, the EC50 under setting [1] was under 1 µM.
Consider `CO[C@@H](C)C(=O)N1CCC2(CC1)CC(N1C(=O)c3cccc(c3)S(=O)(=O)Nc3nc(cc(-c4c(C)cccc4C)n3)OC[C@H]1CC(C)C)C2` [Compound 454], for which the “Ent. B Max Activity (%)” value (Table 9) is “+++ (+++ is >60%)”. Also, under “Table 9, read-out: Ent. B EC50”, the EC50 is under 1 µM.
In the case of `Cc1cccc(C)c1-c1cc2nc(n1)NS(=O)(=O)c1cccc(c1)C(=O)N([C@@H]1CC[C@@H]1C1CC1)[C@H](CC(C)(C)C)CO2` (racemic) [Compound 149, (11R)-12-(2-Cyclopropylcyclobutyl)-6-(2,6-dimethylphenyl)-11-(2,2-dimethylpropyl)-2,2-dioxo-9-oxa-2λ^6-thia-3,5,12,19-tetrazatricyclo[12.3.1.14,8]nonadeca-1(18),4(19),5,7,14,16-hexaen-13-one], the “Ent. B Max Activity (%)” value (Table 10) is given as “+++ (+++ is >60%)”. Besides, the EC50 under setting [1] is under 1 µM.
